Tested on: RAW264.7
Experiment: Antiinflammatory activity in mouse RAW264.7 cells assessed as inhibition of LPS-induced TNFalpha production at 100 uM treated 4 hrs before LPS challenge measured after overnight incubation by ELISA
Format: functional

| Structure (SMILES) | inhibition at 100 µM [%] |
| --- | --- |
| C[C@H]1C[C@@H](O)[C@]23C[C@H](CC[C@]12O)C(C)(C)[C@]3(C)O | 35.4 |
| Cc1ccc(S(=O)(=O)N[C@@H](Cc2ccccc2)C(=O)CCl)cc1 [TPCK] | 60.6 |

Reference: ChEMBL document CHEMBL3091345, “Strepsesquitriol, a rearranged zizaane-type sesquiterpenoid from the deep-sea-derived actinomycete Streptomyces sp. SCSIO 10355” (2013)
